US6737383B1, “Herbicidal oxadiazolidines” (priority 1999, dated 2004)

Columns and labels:
blackgrass [1] = assay: Test B pre/postemergence blackgrass; format: in vivo, Alopecurus myosuroides
Summary of the method: (§1)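 Test chemicals in a non-phytotoxic solvent mixture with surfactant were sprayed preemergence onto planted seeds and postemergence onto plants 2 to 18 cm tall (1- to 4-leaf stage). After twelve to sixteen days in a greenhouse, injury was visually rated against untreated controls from 0 (no effect) to 10 (complete control).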

wild oat [2] = assay: Test B pre/postemergence wild oat; format: in vivo, Avena fatua
Summary of the method: as §1

rice = assay: Test B flood test rice; format: in vivo, Oryza sativa
Summary of the method: (§2)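 Each value is a visual injury score relative to controls, with 10 meaning complete control and 0 no effect. Evaluation took place twelve to sixteen days after the 2-leaf-stage plants were treated and kept in the greenhouse.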

smallflower flatsedge = assay: Test B flood test smallflower flatsedge; format: in vivo, Cyperus difformis
Summary of the method: as §2

bamyardgrass = assay: Test B flood test barnyardgrass; format: in vivo, Echinochloa crus-galli
Summary of the method: as §2

winter wheat [3] = assay: Test E winter wheat; format: in vivo, Triticum aestivum; details: Postemergence, 0 to 100 scale
Summary of the method: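 Postemergence: spray at 1–4 leaf stage, soil 60:40 sandy loam:potting mix; solvent + surfactant formulation; greenhouse 21–28 d; visual injury vs untreated controls.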

blackgrass [4] = assay: Test E blackgrass; format: in vivo, Alopecurus myosuroides; details: Preemergence
green foxtail = assay: Test E green foxtail; format: in vivo, Setaria viridis; details: Preemergence
Italian ryegrass = assay: Test E Italian ryegrass; format: in vivo, Lolium multiflorum; details: Preemergence
winter wheat [5] = assay: Test E winter wheat; format: in vivo, Triticum aestivum; details: Preemergence
wild oat [6] = assay: Test E wild oat; format: in vivo, Avena fatua; details: Preemergence
winter barley = assay: Test E winter barley; format: in vivo, Hordeum vulgare; details: Preemergence
[7] = Preemergence, Rate 62 g/ha, scale of 0 to 10 where 0 is no effect and 10 is complete control
[8] = Preemergence, Rate 250 g/ha, scale of 0 to 10 where 0 is no effect and 10 is complete control
[9] = Preemergence, Rate 500 g/ha, scale of 0 to 10 where 0 is no effect and 10 is complete control
[10] = Rate 62 g/ha, Postemergence, scale 0 to 10 (0 no effect, 10 complete control)
[11] = Rate 125 g/ha, Postemergence, scale of 0 to 10 where 0 is no effect and 10 is complete control
[12] = Rate 250 g/ha, Postemergence, scale of 0 to 10 where 0 is no effect and 10 is complete control
[13] = Rate 500 g/ha, Postemergence, scale 0 to 10, 0 no effect, 10 complete control
[14] = Pre-emergence, Rate 1000 g/ha, scale 0 to 10 (0 no effect, 10 complete control)
[15] = Rate 62 g/ha, headed Pre-emergence (flood test species), scale 0 to 10 (0 no effect, 10 complete control)
[16] = Rate 125 g/ha, Pre-emergence, flood test species, scale 0 to 10 where 0 is no effect and 10 is complete control
[17] = Rate 250 g/ha, Pre-emergence, flood-test species, scale 0 to 10, 0 is no effect, 10 is complete control
[18] = Rate 500 g/ha, Pre-emergence, flood test species, scale 0 to 10 (0 no effect, 10 complete control)
[19] = Rate 125 g/ha, 0 is no effect, 100 is complete control
[20] = Rate 250 g/ha, 0 is no effect, 100 is complete control
[21] = Rate 62 g/ha, 0 to 100 scale, 0 no effect, 100 complete control
[22] = Rate 125 g/ha, 0 to 100 scale (0 no effect, 100 complete control)
[23] = Rate 250 g/ha, 0 to 100 scale, 0 no effect, 100 complete control
[24] = Rate 500 g/ha, 0 is no effect, 100 is complete control
[25] = Rate 500 g/ha, 0 to 100 scale (0 no effect, 100 complete control)
[26] = Postemergence, Rate 125 g/ha, scale 0 to 10, 0 is no effect, 10 is complete control
[27] = Preemergence, Rate 62 g/ha, scale 0 to 10 (0 no effect, 10 complete control)
[28] = Rate 62 g/ha, Postemergence, scale of 0 to 10 where 0 is no effect and 10 is complete control
[29] = Postemergence (flood test), Rate 125 g/ha, scale 0 to 10, 0 is no effect, 10 is complete control
[30] = Rate 62 g/ha, Postemergence (flood test species), scale of 0 to 10 where 0 is no effect and 10 is complete control
[31] = Rate 62 g/ha, flood test species, Pre-emergence, visual evaluation after twelve to sixteen days
[32] = Rate 500 g/ha, listed under Postemergence (flood test species), scale 0 to 10, 0 no effect, 10 complete control

CC(C)N(C(=O)n1oc(=O)n(C2CCOCC2)c1=O)c1ccc(F)cc1 [Compound 310]
6: Barnyardgrass plant response rating (bamyardgrass; [14])
5: Blackgrass plant response rating (blackgrass [1]; [10])
85: Plant response rating, Blackgrass (blackgrass [4]; [21]) | Plant response rating, Blackgrass (blackgrass [4]; [22]) | Plant response rating, Blackgrass (blackgrass [4]; Rate 250 g/ha, 0 to 100 scale)
40: Plant response rating, Wheat (winter) (winter wheat [5]; [22])
80: Plant response rating, Wheat (winter) (winter wheat [3]; [19]) | Plant response rating, Wheat (winter) (winter wheat [3]; [20])
7: Blackgrass plant response rating (blackgrass [1]; [11]) | Barnyardgrass plant response rating (bamyardgrass; [18])
60: Plant response rating, Wheat (winter) (winter wheat [5]; [21]) | Plant response rating, Barley (winter) (winter barley; [22])
10: Blackgrass plant response rating (blackgrass [1]; [7]) | Blackgrass plant response rating (0 to 10 scale) (blackgrass [1]; Preemergence, Rate 125 g/ha) | Blackgrass plant response rating (blackgrass [1]; [8]) | Blackgrass plant response rating (blackgrass [1]; [9])
4: Barnyardgrass plant response rating (bamyardgrass; [17])
50: Plant response rating, Wild oat (wild oat [6]; [22]) | Plant response rating, Barley (winter) (winter barley; [21])
100: Plant response rating, Green foxtail (green foxtail; [21]) | Plant response rating, Green foxtail (green foxtail; [22]) | Plant response rating, Green foxtail (green foxtail; Rate 250 g/ha, 0 to 100 scale)
0: Rice plant response rating (rice; [14]) | Rice plant response rating (rice; [15]) | Rice plant response rating (rice; [16]) | Rice plant response rating (rice; [17]) | Rice plant response rating (rice; [18]) | S. Flatsedge plant response rating (smallflower flatsedge; [14]) | S. Flatsedge plant response rating (smallflower flatsedge; [15]) | S. Flatsedge plant response rating (smallflower flatsedge; [16]) | S. Flatsedge plant response rating (smallflower flatsedge; [17]) | Barnyardgrass plant response rating (bamyardgrass; [15]) | Barnyardgrass plant response rating (bamyardgrass; [16])
3: Wild oats plant response rating (wild oat [2]; [10]) | Wild oats plant response rating (wild oat [2]; [11]) | Plant response rating, Wild oats (wild oat [2]; [12]) | S. Flatsedge plant response rating (smallflower flatsedge; [18])
75: Plant response rating, Wheat (winter) (winter wheat [3]; Rate 62 g/ha)
70: Plant response rating, I. Ryegrass (Italian ryegrass; [21]) | Plant response rating, I. Ryegrass (Italian ryegrass; [22]) | Plant response rating, I. Ryegrass (Italian ryegrass; Rate 250 g/ha, 0 to 100 scale) | Plant response rating, Wheat (winter) (winter wheat [5]; Rate 250 g/ha, 0 to 100 scale) | Plant response rating, Wild oat (wild oat [6]; [21]) | Plant response rating, Wild oat (wild oat [6]; Rate 250 g/ha, 0 to 100 scale) | Plant response rating, Barley (winter) (winter barley; [23])
8: Wild oats plant response rating (wild oat [2]; [7])
9: Plant response rating, Blackgrass (blackgrass [1]; [12]) | Blackgrass plant response rating (blackgrass [1]; [13]) | Wild oats plant response rating (0 to 10 scale) (wild oat [2]; Preemergence, Rate 125 g/ha) | Wild oats plant response rating (wild oat [2]; [8]) | Wild oats plant response rating (wild oat [2]; [9])

COC(Cn1c(=O)on(C(=O)N(c2ccc(F)cc2)C(C)C)c1=O)OC [Compound 317]
95: Plant response rating, Wheat (winter) (winter wheat [3]; [20]) | Plant response rating, Wheat (winter) (winter wheat [3]; [24]) | Plant response rating, I. Ryegrass (Italian ryegrass; [25])
10: Blackgrass plant response rating (blackgrass [1]; [9]) | Wild oats plant response rating (wild oat [2]; [9])
5: Wild oats plant response rating (wild oat [2]; [7])
70: Plant response rating, Wheat (winter) (winter wheat [3]; [19]) | Plant response rating, Wild oat (wild oat [6]; [25]) | Plant response rating, Barley (winter) (winter barley; [25])
3: Blackgrass plant response rating (blackgrass [1]; [7])
50: Plant response rating, Blackgrass (blackgrass [4]; [22]) | Plant response rating, Wheat (winter) (winter wheat [5]; [22]) | Plant response rating, Wheat (winter) (winter wheat [5]; Rate 250 g/ha, 0 to 100 scale) | Plant response rating, Barley (winter) (winter barley; [23])
85: Plant response rating, I. Ryegrass (Italian ryegrass; Rate 250 g/ha, 0 to 100 scale)
8: Blackgrass plant response rating (0 to 10 scale) (blackgrass [1]; Preemergence, Rate 125 g/ha) | Blackgrass plant response rating (blackgrass [1]; [8]) | Blackgrass plant response rating (blackgrass [1]; [10]) | Blackgrass plant response rating (blackgrass [1]; [11]) | Plant response rating, Blackgrass (blackgrass [1]; [12]) | Wild oats plant response rating (0 to 10 scale) (wild oat [2]; Preemergence, Rate 125 g/ha) | Wild oats plant response rating (wild oat [2]; [8])
40: Plant response rating, Barley (winter) (winter barley; [22])
60: Plant response rating, Blackgrass (blackgrass [4]; [25]) | Plant response rating, I. Ryegrass (Italian ryegrass; [22]) | Plant response rating, Wheat (winter) (winter wheat [5]; [25]) | Plant response rating, Wild oat (wild oat [6]; [22]) | Plant response rating, Wild oat (wild oat [6]; Rate 250 g/ha, 0 to 100 scale)
0: Wild oats plant response rating (wild oat [2]; [10]) | Wild oats plant response rating (wild oat [2]; [11]) | Plant response rating, Wild oats (wild oat [2]; [12]) | Rice plant response rating (rice; [14]) | Rice plant response rating (rice; [16]) | Rice plant response rating (rice; [17]) | Rice plant response rating (rice; [18]) | S. Flatsedge plant response rating (smallflower flatsedge; [14]) | S. Flatsedge plant response rating (smallflower flatsedge; [16]) | S. Flatsedge plant response rating (smallflower flatsedge; [17]) | S. Flatsedge plant response rating (smallflower flatsedge; [18]) | Barnyardgrass plant response rating (bamyardgrass; [14]) | Barnyardgrass plant response rating (bamyardgrass; [16]) | Barnyardgrass plant response rating (bamyardgrass; [17]) | Barnyardgrass plant response rating (bamyardgrass; [18])
9: Blackgrass plant response rating (blackgrass [1]; [13])
100: Plant response rating, Blackgrass (blackgrass [4]; Rate 250 g/ha, 0 to 100 scale) | Plant response rating, Green foxtail (green foxtail; [22]) | Plant response rating, Green foxtail (green foxtail; Rate 250 g/ha, 0 to 100 scale) | Plant response rating, Green foxtail (green foxtail; [25])

CCC(CC)n1c(=O)on(C(=O)N(c2ccccc2)C(C)C)c1=O [Compound 354]
30: Plant response rating, Wheat (winter) (winter wheat [3]; [19]) | Plant response rating, Blackgrass (blackgrass [4]; [25]) | Plant response rating, Wheat (winter) (winter wheat [5]; [22]) | Plant response rating, Wild oat (wild oat [6]; Rate 250 g/ha, 0 to 100 scale) | Plant response rating, Barley (winter) (winter barley; [23])
80: Plant response rating, Green foxtail (green foxtail; Rate 250 g/ha, 0 to 100 scale)
40: Plant response rating, Wheat (winter) (winter wheat [3]; [20]) | Plant response rating, Wild oat (wild oat [6]; [25]) | Plant response rating, Barley (winter) (winter barley; [25])
3: Plant response rating, Blackgrass (blackgrass [1]; [27]) | Blackgrass plant response rating (blackgrass [1]; [28]) | Plant response rating, Wild oats (wild oat [2]; [13])
8: Blackgrass plant response rating (blackgrass [1]; [8]) | Wild oats plant response rating (wild oat [2]; [9]) | Plant response rating, S. Flatsedge (smallflower flatsedge; [29])
2: Plant response rating, Rice (rice; [32])
60: Plant response rating, I. Ryegrass (Italian ryegrass; Rate 250 g/ha, 0 to 100 scale) | Plant response rating, Wheat (winter) (winter wheat [5]; [25])
100: Plant response rating, Green foxtail (green foxtail; [25])
20: Plant response rating, Barley (winter) (winter barley; [22])
50: Plant response rating, Wheat (winter) (winter wheat [3]; [24]) | Plant response rating, Blackgrass (blackgrass [4]; [22]) | Plant response rating, I. Ryegrass (Italian ryegrass; [22]) | Plant response rating, Wheat (winter) (winter wheat [5]; Rate 250 g/ha, 0 to 100 scale)
0: Plant response rating, Wild oats (wild oat [2]; [26]) | Plant response rating, Wild oats (wild oat [2]; [27]) | Wild oats plant response rating (wild oat [2]; [28]) | Plant response rating, Rice (rice; [29]) | Rice plant response rating (rice; [30]) | Plant response rating, Rice (0 to 10 scale, 0 is no effect, 10 is complete control) (rice; [31]) | Rice plant response rating (rice; [16]) | Rice plant response rating (rice; [17]) | Rice plant response rating (rice; [18]) | Plant response rating, S. Flatsedge (0 to 10 scale, 0 is no effect, 10 is complete control) (smallflower flatsedge; [31]) | S. Flatsedge plant response rating (smallflower flatsedge; [16]) | S. Flatsedge plant response rating (smallflower flatsedge; [17]) | S. Flatsedge plant response rating (smallflower flatsedge; [18]) | Barnyardgrass plant response rating (bamyardgrass; [30]) | Plant response rating, Barnyardgrass (0 to 10 scale, 0 is no effect, 10 is complete control) (bamyardgrass; [31]) | Barnyardgrass plant response rating (bamyardgrass; [16]) | Barnyardgrass plant response rating (bamyardgrass; [17]) | Barnyardgrass plant response rating (bamyardgrass; [18]) | Plant response rating, Wild oat (wild oat [6]; [22])
85: Plant response rating, Green foxtail (green foxtail; [22])
4: Blackgrass plant response rating (0 to 10 scale) (blackgrass [1]; Preemergence, Rate 125 g/ha) | Wild oats plant response rating (0 to 10 scale) (wild oat [2]; Preemergence, Rate 125 g/ha) | Plant response rating, Barnyardgrass (bamyardgrass; [29])
7: Plant response rating, Blackgrass (blackgrass [1]; [12]) | Plant response rating, Barnyardgrass (bamyardgrass; Rate 250 g/ha, Postemergence (flood test species), scale of 0 to 10 where 0 is no effect and 10 is complete control)
6: Wild oats plant response rating (wild oat [2]; [8])
55: Plant response rating, Blackgrass (blackgrass [4]; Rate 250 g/ha, 0 to 100 scale)
9: Blackgrass plant response rating (blackgrass [1]; [9]) | Plant response rating, Blackgrass (blackgrass [1]; [13]) | Plant response rating, S. Flatsedge (smallflower flatsedge; [32]) | Plant response rating, Barnyardgrass (bamyardgrass; [32])
90: Plant response rating, I. Ryegrass (Italian ryegrass; [25])
5: Plant response rating, Blackgrass (blackgrass [1]; [26]) | S. Flatsedge plant response rating (smallflower flatsedge; [30])
